Assay results reported in patent US20070082871A1, “Antiresorptive mutual salt of raloxifene and bisphosphonic acid” (HANMI PHARM. CO., LTD., priority 2003, published 2007).
Read-outs that look alike come from different tables or passages of the source.

Tests used:
ovary-removed rats [1] = conditions: for Bone volume Vol.: (bone volume)/(metaphysis volume) × 100; for Trabecular volume Vol.: (trabecular volume)/(epiphysis volume) × 100; for BMD / Stiffness Max. load / Stiffness Stiff.: femur; for BMD / Stiffness Max. load / Stiffness Stiff. / Blood calcium density Conc.: oophorectomy rats, oral once a day 8 weeks; for Stiffness Relativ. Stiff.: relative Max. Load value, OVX control = 1.00; for Trabecular volume Relativ Vol / BMD Relativ. Density / Blood calcium density Relativ. Conc. / Bone volume Relativ Vol: relative to OVX control = 1.00
Method: (§1) In order to investigate the effects of the inventive mutual salts on BMD, bone stiffness, serum cholesterol level and calcium density, in vivo tests were carried out as follows.
(§2) Also, 1.5% carboxymethylcellulose alone was administrated in a same manner to each of ovary-removed rats (group OVX) and normal rats (control, group Sham). After 8 weeks, a femur sample was obtained from each test groups to measure BMD, maximum load, stiffness, trabecular volume of epiphysis, bone volume of metaphysis, blood cholesterol level and blood calcium density.

ovary-removed rats [2] = test: In vivo test: blood cholesterol level; set-up: species or system rats (Sprague-Dawley); conditions: for Total blood cholesterol Conc.: oophorectomy rats, oral once a day 8 weeks; for Total blood cholesterol Relativ. Conc.: relative to OVX control = 1.00
Method: as §1, §2

[3] = in words, as compared with the individual raloxifene hydrochloride or alendronate

NCCCC(O)(P(=O)(O)O)P(=O)(O)O [Alendronate, sodium alendronate trihydrate]
Bone volume Vol. (ovary-removed rats [1]; 1.0 mg/kg (T1)): 56.46 ± 17.93%
Trabecular volume Vol. (ovary-removed rats [1]; 1.0 mg/kg (T1)): 20.27 ± 7.76%
BMD (ovary-removed rats [1]; 1.0 mg/kg (T1)): 92.57 ± 5.64 mg/cm^2
Stiffness Max. load (ovary-removed rats [1]; 1.0 mg/kg (T1)): 19.22 ± 2.14 N
Stiffness Stiff. (ovary-removed rats [1]; 1.0 mg/kg (T1)): 19.02 ± 3.86 N/mm
Stiffness Relativ. Stiff. (ovary-removed rats [1]; 1.0 mg/kg (T1)): 0.88
Trabecular volume Relativ Vol (ovary-removed rats [1]; 1.0 mg/kg (T1)): 1.75
Total blood cholesterol Conc. (ovary-removed rats [2]; 1.0 mg/kg (T1)): 98.387 ± 17.23 mg/dL
Total blood cholesterol Relativ. Conc. (ovary-removed rats [2]; 1.0 mg/kg (T1)): 0.93

Cl.O=C(c1ccc(OCCN2CCCCC2)cc1)c1c(-c2ccc(O)cc2)sc2cc(O)ccc12 [Raloxifene hydrochloride, 6-hydroxy-2-(4-hydroxyphenyl)benzo[b]thien-3-yl 4-[2-(1-piperidinyl)ethoxy]phenyl methanone hydrochloride]
Bone volume Vol. (ovary-removed rats [1]; 1.9 mg/kg (T2)): 75.96 ± 17.61%
Bone volume Vol. (ovary-removed rats [1]; 5.6 mg/kg (T3)): 65.56 ± 15.33%
Trabecular volume Vol. (ovary-removed rats [1]; 1.9 mg/kg (T2)): 11.25 ± 2.57%
Trabecular volume Vol. (ovary-removed rats [1]; 5.6 mg/kg (T3)): 15.15 ± 4.08%
BMD (ovary-removed rats [1]; 1.9 mg/kg (T2)): 91.09 ± 6.98 mg/cm^2
Stiffness Max. load (ovary-removed rats [1]; 1.9 mg/kg (T2)): 30.00 ± 3.24 N
Stiffness Stiff. (ovary-removed rats [1]; 1.9 mg/kg (T2)): 33.07 ± 9.55 N/mm
BMD (ovary-removed rats [1]; 5.6 mg/kg (T3)): 93.76 ± 6.22 mg/cm^2
Stiffness Max. load (ovary-removed rats [1]; 5.6 mg/kg (T3)): 32.09 ± 4.37 N
Stiffness Stiff. (ovary-removed rats [1]; 5.6 mg/kg (T3)): 38.64 ± 15.2 N/mm
Blood calcium density Conc. (ovary-removed rats [1]; 1.9 mg/kg (T2)): 9.20 ± 0.33 mg/dL
Blood calcium density Conc. (ovary-removed rats [1]; 5.6 mg/kg (T3)): 9.42 ± 0.23 mg/dL
Stiffness Relativ. Stiff. (ovary-removed rats [1]; 1.9 mg/kg (T2)): 1.37
Stiffness Relativ. Stiff. (ovary-removed rats [1]; 5.6 mg/kg (T3)): 1.46
BMD Relativ. Density (ovary-removed rats [1]; 1.9 mg/kg (T2)): 1.17
Blood calcium density Relativ. Conc. (ovary-removed rats [1]; 1.9 mg/kg (T2)): 0.98
Bone volume Relativ Vol (ovary-removed rats [1]; 1.9 mg/kg (T2)): 2.64
Trabecular volume Relativ Vol (ovary-removed rats [1]; 1.9 mg/kg (T2)): 0.97
BMD Relativ. Density (ovary-removed rats [1]; 5.6 mg/kg (T3)): 1.20
Blood calcium density Relativ. Conc. (ovary-removed rats [1]; 5.6 mg/kg (T3)): 1.00
Bone volume Relativ Vol (ovary-removed rats [1]; 5.6 mg/kg (T3)): 2.28
Trabecular volume Relativ Vol (ovary-removed rats [1]; 5.6 mg/kg (T3)): 1.31
Total blood cholesterol Conc. (ovary-removed rats [2]; 1.9 mg/kg (T2)): 41.40 ± 9.71 mg/dL
Total blood cholesterol Conc. (ovary-removed rats [2]; 5.6 mg/kg (T3)): 40.83 ± 14.2 mg/dL
Total blood cholesterol Relativ. Conc. (ovary-removed rats [2]; 1.9 mg/kg (T2)): 0.39
Total blood cholesterol Relativ. Conc. (ovary-removed rats [2]; 5.6 mg/kg (T3)): 0.39

raloxifene alendronate pentahydrate
Bone volume Vol. (ovary-removed rats [1]; 2.9 mg/kg (T4)): 68.00 ± 9.00%
Trabecular volume Vol. (ovary-removed rats [1]; 2.9 mg/kg (T4)): 17.81 ± 2.49%
BMD (ovary-removed rats [1]; 2.9 mg/kg (T4)): 99.28 ± 6.25 mg/cm^2
Stiffness Max. load (ovary-removed rats [1]; 2.9 mg/kg (T4)): 26.50 ± 0.73 N
Stiffness Stiff. (ovary-removed rats [1]; 2.9 mg/kg (T4)): 35.34 ± 11.3 N/mm
BMD, bone stiffness, trabecular volume and bone volume (ovary-removed rats [1]; [3]): markedly enhances
blood calcium level (ovary-removed rats [1]; [3]): effectively controls
Blood calcium density Conc. (ovary-removed rats [1]; 2.9 mg/kg (T4)): 6.69 ± 0.94 mg/dL
Stiffness Relativ. Stiff. (ovary-removed rats [1]; 2.9 mg/kg (T4)): 1.21
BMD Relativ. Density (ovary-removed rats [1]; 2.9 mg/kg (T4)): 1.27
Blood calcium density Relativ. Conc. (ovary-removed rats [1]; 2.9 mg/kg (T4)): 0.71
Bone volume Relativ Vol (ovary-removed rats [1]; 2.9 mg/kg (T4)): 2.37
Trabecular volume Relativ Vol (ovary-removed rats [1]; 2.9 mg/kg (T4)): 1.54
blood cholesterol level (ovary-removed rats [2]; [3]): effectively controls
Total blood cholesterol Conc. (ovary-removed rats [2]; 2.9 mg/kg (T4)): 66.86 ± 9.68 mg/dL
Total blood cholesterol Relativ. Conc. (ovary-removed rats [2]; 2.9 mg/kg (T4)): 0.64
